Values after ≈ are worked out from the molar mass of the structure shown.
How the values were obtained:
[1] = target: T1, human farnesoid X receptor (FXR) alpha ligand binding domain (Homo sapiens, UniProt Q96RI1); experiment: FRET activity assay (ligand mediated cofactor peptide interaction, LANCE); type: biochemical; conditions: FXR-LBD/SRC-1 peptide interaction
T1 construct: made in house; host or cells: E. coli BL21(DE3), vector pDEST15
T1 sequence (Q96RI1 187-472 isoform Q96RI1-2): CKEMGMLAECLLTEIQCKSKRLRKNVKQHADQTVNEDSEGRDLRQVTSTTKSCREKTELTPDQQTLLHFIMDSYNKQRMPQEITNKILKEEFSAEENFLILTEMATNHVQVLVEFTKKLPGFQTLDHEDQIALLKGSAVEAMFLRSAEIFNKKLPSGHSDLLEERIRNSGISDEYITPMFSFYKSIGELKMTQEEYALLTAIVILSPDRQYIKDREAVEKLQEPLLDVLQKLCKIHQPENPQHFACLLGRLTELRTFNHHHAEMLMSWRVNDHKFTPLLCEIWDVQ
Protocol: Determination of a ligand mediated cofactor peptide interaction to quantify ligand binding to the nuclear receptor Farnesoid X Receptor (FXR) was performed as follows:
Preparation of human farnesoid X receptor (FXR) alpha ligand binding domain: The human FXRalpha ligand binding domain (LBD) was expressed in E. coli strain BL21(DE3) as an N-terminally glutathione-S-transferase (GST) tagged fusion protein. The DNA encoding the FXR ligand binding domain was cloned into vector pDEST15 (Invitrogen). Expression was under control of an IPTG inducible T7 promoter. The amino acid boundaries of the ligand binding domain were amino acids 187-472 of Database entry NM_005123 (RefSeq). Expression and purification of the FXR-LBD: An overnight preculture of a transformed E. coli strain was diluted 1:20 in LB-Ampicillin medium and grown at 30° C. to an optical density of OD600=0.4-0.6. Gene expression was then induced by addition of 0.5 mM IPTG. Cells were incubated an additional 6 h at 30° C., 180 rpm. Cells were collected by centrifugation (7000×g, 7 min, room temperature). Per liter of original cell culture, cells were resuspended in 10 ml lysis buffer (50 mM Glucose, 50 mM Tris pH 7.9, 1 mM EDTA and 4 mg/ml lysozyme) and left on ice for 30 min. Cells were then subjected to sonication and cell debris removed via centrifugation (22000×g, 30 min, 4° C.). Per 10 ml of supernatant 0.5 ml prewashed Glutathione 4B sepharose slurry (Qiagen) was added and the suspension kept slowly rotating for 1 h at 4° C. Glutathione 4B sepharose beads were pelleted by centrifugation (2000 g, 15 sec, 4° C.) and washed twice in wash buffer (25 mM Tris, 50 mM KCl, 4 mM MgCl2 and 1 M NaCl). The pellet was resuspended in 3 ml elution buffer per liter of original culture (elution buffer: 20 mM Tris, 60 mM KCl, 5 mM MgCl2 and 80 mM glutathione added immediately prior to use as powder). The suspension was left rotating for 15 min at 4° C., the beads pelleted and eluted again with half the volume of elution buffer than the first time. The eluates were pooled and dialysed overnight in 20 mM Hepes buffer (pH 7.5) containing 60 mM KCl, 5 mM MgCl2 as well as 1 mM dithiothreitol and 10% (v/v) glycerol. The protein was analysed by SDS-Page.
The method measures the ability of putative ligands to modulate the interaction between the purified bacterial expressed FXR ligand binding domain (LBD) and a synthetic biotinylated peptide based on residues 676-700 of SRC-1 (LCD2, 676-700). The sequence of the peptide used was B-[…]-COOH where the N-terminus was biotinylated (B). The ligand binding domain (LBD) of FXR was expressed as fusion protein with GST in BL-21 cells using the vector pDEST15. Cells were lysed by sonication, and the fusion proteins purified over glutathione sepharose (Pharmacia) according to the manufacturers instructions. […] For ease of handling and reduction of background from compound fluorescence LANCE technology makes use of generic fluorophore labels and time resolved detection Assays were done in a final volume of 25 μl in a 384 well plate, in a Tris-based buffer (20 mM Tris-HCl pH 7.5; 60 mM KCl, 5 mM MgCl2; 35 ng/μl BSA), containing 20-60 ng/well recombinantly expressed FXR-LBD fused to GST, 200-600 nM N-terminally biotinylated peptide, representing SRC1 aminoacids 676-700, 200 ng/well Streptavidin-xIAPC conjugate (Prozyme) and 6-10 ng/well Eu W1024-antiGST (Perkin Elmer). […]

[2] = Aqueous solubility assay, Protocol A, nephelometry method; type: physicochemical; conditions: PBS with 5% DMSO, aqueous with cosolvent or surfactant or cyclodextrin, kinetic from dmso stock, PBS pH 7.4, 5% DMSO, 23° C.
Protocol: Aqueous solubility of compounds was determined by nephelometry or by shake-flask method as follows:
Protocol A, Nephelometry Method:
Solubility of compounds was measured in PBS (pH 7.4), 5% DMSO at 23° C. Nepheloskan Ascent (Thermo Electron Corporation) nephelometer was used for measurement of light scattering. Tested compounds were dissolved in DMSO to 10 mM. Prior to measurement the compounds were further diluted with PBS in the wells to final compound concentrations of 100, 70, 50, 35, 25, 17, 12 and <10 μg/ml.
The plates were incubated at room temperature for 24 hours to reach equilibrium and the scattered light was measured. Assay validation: Aqueous solubility of acetylsalicylic acid was determined to validate the assay. […] Aqueous solubilities of examples and reference compounds are listed below in Table 2.

Cc1cc(OCc2c(-c3c(Cl)cccc3Cl)noc2C(C)C)cnc1Oc1ccc(C(=O)O)cc1 [Example 3, 4-(5-((3-(2,6-Dichlorophenyl)-5-isopropylisoxazol-4-yl)methoxy)-3-methylpyridin-2-yloxy)benzoic acid]
EC50 [1]: ≤ 1000 nM
melting point: 74 to 76 °C

CC(C)c1onc(-c2c(Cl)cccc2Cl)c1COc1ccc(Oc2ccc(C(=O)O)cc2)cc1 [Compound A, reference compound]
solubility at 24 h [2]: 24 µM (≈ 12 µg/mL)

— patent US8193192B2, “Heterocyclic FXR binding compounds” (Phenex Pharmaceuticals AG, priority 2006, dated 2012)
